Laboratory results from patent publication US9828375B2, “4-position substituted pyrazolopyrimidine derivative, and use thereof in drug preparation” (Guangxi Wuzhou Pharmaceuticals (Group) Co., Ltd., priority 2012, dated 2017).
Like-named read-outs stand apart in the source and are kept apart here.

What was measured:
[1] = test system: human gastric carcinoma cell line MKN-45; assay: In vitro tumor cell proliferation inhibition (MTT): MKN-45; format: cell-based
Source text: (§1) The purpose of the experiment was to test the inhibition activity of the compounds of the invention for in vitro human tumor cell proliferation by the methyl thiazolyl tetrazolium (MTT) colorimetry.
(§2) Main reagents: RPMI-1640, fetal bovine serum, pancreatin, etc. were purchased from Gibco BRL Company (Invitrogen Corporation, USA) and IMDM medium that was purchased from American Type Culture Collection (ATCC). Methyl thiazolyl tetrazolium (MTT) and dimethyl sulfoxide (DMSO) were products from Sigma Company (USA). Pyrazolopyrimidine derivatives were composed by the inventor. During in vitro experiment, 100% DMSO was prepared into 10 mM storage solution, the solution was stored in a refrigerator at −20° C. for future use, and was diluted to the required concentration with complete culture solution before use.
(§3) Cell line and culture: Human leukemia cell line MV4-11, Jurkat, K562, human thyrophyma cell line TT, human gastric carcinoma cell line MKN-45, human malignant melanoma cell lines A375 and A875, human pancreatic carcinoma cell line panc-1, human cervical carcinoma cell line HELA, human colorectal carcinoma cell line HCT116, etc. were purchased from American type culture collection and were preserved by this laboratory. All leukemia cell lines (except MV4-11), gastric carcinoma cell lines and thyrophyma cell lines were cultured in RPMI-1640 complete medium containing 10% fetal bovine serum, 100 U/mL penicillin and 100 μg/mL streptomycin at 37° C. in 5% CO2. The remaining cell lines were cultured in DMEM complete medium containing 10% fetal bovine serum (containing 20% MV4-11 cell), 100 U/mL penicillin and 100 µg/mL streptomycin at 37° C. in 5% CO2.
(§4) Cell suspension with cell concentration of 1-2×10^4/mL was adjusted with the complete cell medium and inoculated in a 96-well plate, with each well filled with 200 μl cell suspension that was cultured overnight. On the next day, supernatant was sucked and abandoned (supernatant was sucked upon centrifugation of suspension cells), and then cells were processed with test compounds at gradient concentrations respectively. Meanwhile, a negative control group free from drug and a solvent control group with equal volume were set, and the DMSO concentration was 0.1%. Each dose group was provided with three wells and cultured at 37° C. in 5% CO2. After 72 hours, 20 μl 5 mg/mL MTT reagent was added to each well, and cultured for another 2 to 4 hours, the supernatant was abandoned; 150 μL DMSO was added to each well again, vibrated and mixed evenly for 15 minutes; the absorbance (A) values (proportional to living cell amount) were determined with a microplate reader (λ=570 nm) and averaged. […] Experiment was repeated for 3 times at least. Experimental data were expressed with means, data statistics were tested by t, and P<0.05 means that difference has a statistical significance. The cell proliferation inhibition effects of all compounds as follows are expressed by IC50 or inhibition rate.

[2] = test system: human cervical carcinoma cell line HELA; assay: In vitro tumor cell proliferation inhibition (MTT): HELA; format: cell-based; conditions: 72 hours
Source text: as §1, §2, §3, §4

[3] = test system: human malignant melanoma cell line A375; assay: In vitro tumor cell proliferation inhibition (MTT): A375; format: cell-based
Source text: as §1, §2, §3, §4

[4] = test system: human leukemia cell line Jurkat; assay: In vitro tumor cell proliferation inhibition (MTT): Jurkat; format: cell-based; conditions: 72 hours
Source text: as §1, §2, §3, §4

c-KIT = c-KIT (Homo sapiens, UniProt P10721); assay: Kinase inhibition activity test, isotope labeling: c-KIT; format: biochemical; conditions: for Activity inhibition rate c-Kit (h) / inhibition at 10 µM: test compound at a concentration of 10 μM; for inhibition at 10 µM: read-out: Activity inhibition rate c-Kit (h); for IC50: ATP 200 μM, read-out: c-KIT IC50 value (inhibitory activity value)
Chain of c-KIT (P10721 26-976): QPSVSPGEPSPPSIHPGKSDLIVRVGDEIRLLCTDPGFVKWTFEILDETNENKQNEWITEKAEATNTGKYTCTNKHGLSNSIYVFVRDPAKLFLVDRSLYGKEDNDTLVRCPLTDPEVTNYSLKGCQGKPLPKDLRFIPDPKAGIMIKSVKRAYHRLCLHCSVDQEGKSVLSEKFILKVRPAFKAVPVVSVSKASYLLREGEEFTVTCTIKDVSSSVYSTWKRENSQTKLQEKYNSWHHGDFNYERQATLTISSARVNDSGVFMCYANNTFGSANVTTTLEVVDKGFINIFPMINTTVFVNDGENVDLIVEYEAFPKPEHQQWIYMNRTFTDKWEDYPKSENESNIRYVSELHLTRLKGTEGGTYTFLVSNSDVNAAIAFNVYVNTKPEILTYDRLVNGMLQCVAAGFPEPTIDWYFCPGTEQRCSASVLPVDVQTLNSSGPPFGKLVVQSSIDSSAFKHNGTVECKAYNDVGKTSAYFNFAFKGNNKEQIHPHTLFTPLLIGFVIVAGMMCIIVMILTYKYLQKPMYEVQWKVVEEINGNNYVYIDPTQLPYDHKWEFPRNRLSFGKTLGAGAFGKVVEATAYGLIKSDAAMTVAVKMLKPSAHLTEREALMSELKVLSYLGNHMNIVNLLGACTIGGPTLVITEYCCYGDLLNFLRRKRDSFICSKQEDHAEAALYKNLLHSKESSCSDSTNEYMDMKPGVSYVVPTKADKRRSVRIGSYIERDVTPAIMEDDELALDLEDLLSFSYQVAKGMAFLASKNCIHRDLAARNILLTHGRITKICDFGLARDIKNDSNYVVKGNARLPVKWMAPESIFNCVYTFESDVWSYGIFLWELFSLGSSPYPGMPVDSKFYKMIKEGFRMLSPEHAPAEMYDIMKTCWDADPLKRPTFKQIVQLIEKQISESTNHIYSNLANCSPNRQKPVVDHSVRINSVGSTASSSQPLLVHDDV
Experimental: The purpose of this experiment was to test the inhibitory activity of the compound of the invention for in vitro kinase with the isotope labeling method (the γ phosphate group on ATP was labeled). In this experiment, the in vitro activity inhibition of such kinases as FLT3, VEGFR2, FLT1, FLT4, RET, c-RAF, B-RAF, c-KIT, PDGFα, PDGFβ, FGFR2, FGFR1, EphA2, EphB2, SRC, ABL, ALK and Met was tested respectively. Staurosporine was reference molecule (or referred to as positive control). The kinase inhibition activity of the test compound was expressed by half-inhibitory concentration (IC50) or the kinase activity inhibition rate of the test compound at a concentration of 10 μM. The IC50 value could be obtained by calculating the kinase activity inhibition rate of the test compound at different concentrations.
20 mM 3-(N-morpholinyl)propanesulfonic acid (MOPS); 1 mM ethylenediaminetetraacetic acid (EDTA), 0.01% Brij 35 (Brij-35), 5% glycerol, 0.1% mercaptoethanol, 1 mg/mL bovine serum albumin (BSA), 10 mM manganous dichloride solution (MnCl2), 0.1 mg/mL glutamic acid/tyrosine (4:1) polypeptide (poly(Glu, Tyr)4:1), 50 μM EAIYAAPFAKKK (substrate of FLT3), 0.33 mg/mL myelin basic protein (substrate of VEGFR2), 250 μM KKKSPGEYVNIEFG (substrate of FLT1(h)), 500 μM GGEEEEYFELVKKKK (substrate of FLT4(h)), 250 μM KKKSPGEYVNIEFG (substrate of RET), 0.66 mg/mL myelin basic protein (substrate of C-RAF), 250 μM GGMEDIYFEFMGGKKK (substrate of c-Kit), 250 μM GGMEDIYFEFMGGKKK (substrate of PDGFα), 250 μM KKKSPGEYVNIEFG (substrate of FGFR1), […] GGEEEEYFELVKKKK (substrate of SRC), 50 μM EAIYAAPFAKKK (substrate of ABL), 250 μM KKKSPGEYVNIEFG (substrate of ALK), 250 μM KKKSPGEYVNIEFG (substrate of Met(h)), 10 mM magnesium acetate and γ-^33 P-ATP solution, stop buffer (3% phosphate buffer), washing buffer (75 mM phosphate solution), methanol, Filtermat A membrane, FLT3, VEGFR2, FLT3, VEGFR2, FLT1, FLT4, RET, c-RAF, B-RAF, c-KIT, PDGFRα, PDGFRβ, FGFR2, FGFR1, EphA2, EphB2, SRC, ABL, ALK, Met and other kinases, and the test compounds.
Buffers (8 mM MOPS with pH value of 7.0, 0.2 mM EDTA and 10 mM MnCl2), (5-10 mU) kinases to be tested (FLT3, VEGFR2, FLT1, FLT4, RET, c-RAF, B-RAF, c-KIT, PDGFRα, PDGFRβ, FGFR2, FGFR1, EphA2, EphB2, SRC, ABL, ALK and Met), substrates of kinases to be tested (refer to experimental materials), 10 mM magnesium acetate and γ-^33 P-ATP solution, and test compounds at different concentrations were added to a reaction tube orderly. […] Reaction was terminated with 5 μL 3% phosphate buffer finally, and 10 μL reaction solution was titrated to the Filtermat A membrane; solution was washed for 3 times with 75 mM phosphate solution with each time lasting 5 minutes, and then washed once with methanol. Finally, the Filtermat A membrane was dried, and scintillation counting was performed on the membrane, with scintillation count reflecting the phosphorylation degree of the substrates, so that the activity inhibition of kinase could be characterized.

[5] = test system: human malignant melanoma cell line A875; assay: In vitro tumor cell proliferation inhibition (MTT): A875; format: cell-based
Source text: as §1, §2, §3, §4

[6] = test system: human colorectal carcinoma cell line HCT116; assay: In vitro tumor cell proliferation inhibition (MTT): HCT116; format: cell-based
Source text: as §1, §2, §3, §4

[7] = 72 hours, read-out: Proliferation inhibition activity (IC50) HCT 116
[8] = Homo sapiens, HCT-116, 72 hours

## O=C(Nc1ccc(C(F)(F)F)cc1)Nc1ccc(Oc2ncnc3[nH]ncc23)c(F)c1 [4a-9, 1-(4-((1H-pyrazolopyrimidine-4-yl)oxy)-3-fluorophenyl)-3-(4-(trifluoromethyl)phenyl)urea]
[1]; 72 hours
  IC50: 7.63 µM
[2]
  IC50: 4.98 µM
[3]; 72 hours
  IC50: < 50 µM
[4]
  IC50: < 50 µM
c-KIT
  Activity inhibition rate c-Kit (h): 29%
[5]; 72 hours
  IC50: < 50 µM
[6]; [7]
  IC50: 4.56 µM

## O=C(Nc1ccccc1)Nc1ccc(Oc2ncnc3[nH]ncc23)cc1 [4a-15, 1-(4-((1H-pyrazolopyrimidine-4-yl)oxy)phenyl)-3-phenylurea]
[1]; 72 hours
  IC50: < 50 µM
[2]
  IC50: < 50 µM
[3]; 72 hours
  IC50: < 50 µM
[4]
  IC50: < 50 µM
c-KIT
  Activity inhibition rate c-Kit (h): 66%
[5]; 72 hours
  IC50: < 50 µM
[6]; [7]
  IC50: < 50 µM

## COc1cccc(NC(=O)Nc2ccc(Nc3ncnc4[nH]ncc34)cc2)c1 [4b-3]
[1]; Homo sapiens, MKN-45, 72 hours
  IC50: < 50 µM
[2]; Homo sapiens, HeLa
  IC50: < 50 µM
[3]; Homo sapiens, A-375, 72 hours
  IC50: < 50 µM
[4]; Homo sapiens, Jurkat
  IC50: < 50 µM
c-KIT
  inhibition at 10 µM: > 30%
[5]; Homo sapiens, A875, 72 hours
  IC50: < 50 µM
[6]; [8]
  IC50: < 50 µM

## 1-(4-((1H-pyrazolopyrimidine-4-yl)oxy)phenyl)-3-(methylcyclohexyl)urea [4a-20]
[1]; 72 hours
  IC50: < 50 µM
[2]
  IC50: < 50 µM
[3]; 72 hours
  IC50: < 50 µM
[4]
  IC50: < 50 µM
c-KIT
  Activity inhibition rate c-Kit (h): 98%
[5]; 72 hours
  IC50: < 50 µM
[6]; [7]
  IC50: < 50 µM

## O=C(Nc1ccc(Oc2ncnc3[nH]ncc23)cc1)Nc1ccc(C(F)(F)F)cc1Cl [4a-13]
[1]; 72 hours
  IC50: 6.68 µM
[2]
  IC50: < 50 µM
[3]; 72 hours
  IC50: < 50 µM
[4]
  IC50: < 50 µM
c-KIT
  Activity inhibition rate c-Kit (h): 85%
[5]; 72 hours
  IC50: < 50 µM
[6]; [7]
  IC50: < 50 µM

## O=C(Nc1ccc(Oc2ncnc3[nH]ncc23)cc1)Nc1cccc(C(F)(F)F)c1 [4a-6]
[1]; Homo sapiens, MKN-45, 72 hours
  IC50: 9.71 µM
[2]; Homo sapiens, HeLa
  IC50: < 50 µM
[3]; Homo sapiens, A-375, 72 hours
  IC50: 3.45 µM
[4]; Homo sapiens, Jurkat
  IC50: 4.28 µM
c-KIT
  IC50: 0.313 µM
  inhibition at 10 µM: 100%
[5]; Homo sapiens, A875, 72 hours
  IC50: 6.24 µM
[6]; [8]
  IC50: < 50 µM

## O=C(Nc1ccc(Oc2ncnc3[nH]ncc23)cc1)Nc1cc(C(F)(F)F)cc(C(F)(F)F)c1 [4a-12, 1-(4-((1H-pyrazolopyrimidine-4-yl)oxy)phenyl)-3-(3,5-bis(trifluoromethyl)phenyl)urea]
[1]; 72 hours
  IC50: 8.29 µM
[2]
  IC50: < 50 µM
[3]; 72 hours
  IC50: < 50 µM
[4]
  IC50: < 50 µM
c-KIT
  Activity inhibition rate c-Kit (h): 58%
[5]; 72 hours
  IC50: < 50 µM
[6]; [7]
  IC50: < 50 µM

## O=C(Nc1ccc(Oc2ncnc3[nH]ncc23)cc1)Nc1ccc(Cl)c(C(F)(F)F)c1 [4a-2]
[1]; 72 hours
  IC50: 8.23 µM
[2]
  IC50: < 50 µM
[3]; 72 hours
  IC50: 2.12 µM
[4]
  IC50: 8.72 µM
c-KIT
  IC50: 0.507 µM
  Activity inhibition rate c-Kit (h): 100%
[5]; 72 hours
  IC50: 4.12 µM
[6]; [7]
  IC50: < 50 µM

## 1-(4-((1H-pyrazolopyrimidine-4-yl)oxy)-3-fluorophenyl)-3-(3-trifluoromethoxy)phenyl)urea [4a-8]
[1]; 72 hours
  IC50: 7.65 µM
[2]
  IC50: 8.49 µM
[3]; 72 hours
  IC50: 4.65 µM
[4]
  IC50: < 50 µM
c-KIT
  Activity inhibition rate c-Kit (h): 95%
[5]; 72 hours
  IC50: 6.97 µM
[6]; [7]
  IC50: 5.7 µM

## CC(C)c1cccc(NC(=O)Nc2ccc(Oc3ncnc4[nH]ncc34)c(F)c2)c1 [4a-7, 1-(4-((1H-pyrazolopyrimidine-4-yl)oxy)-3-fluorophenyl)-3-(3-isopropylphenyl)urea]
[1]; 72 hours
  IC50: < 50 µM
[2]
  IC50: < 50 µM
[3]; 72 hours
  IC50: < 50 µM
[4]
  IC50: < 50 µM
c-KIT
  Activity inhibition rate c-Kit (h): 98%
[5]; 72 hours
  IC50: < 50 µM
[6]; [7]
  IC50: < 50 µM

## O=C(Nc1ccc(Oc2ncnc3[nH]ncc23)c(F)c1)Nc1ccc(Cl)c(C(F)(F)F)c1 [4a-10, 1-(4-((1H-pyrazolopyrimidine-4-yl)oxy)-3-fluorophenyl)-3-(4-chloro-3-(trifluoromethyl)phenyl)urea]
[1]; 72 hours
  IC50: 5.28 µM
[2]
  IC50: < 50 µM
[3]; 72 hours
  IC50: < 50 µM
[4]
  IC50: 9.93 µM
c-KIT
  Activity inhibition rate c-Kit (h): 49%
[5]; 72 hours
  IC50: < 50 µM
[6]; [7]
  IC50: < 50 µM

## O=C(Nc1cccc(Nc2ncnc3[nH]ncc23)c1)Nc1ccc(F)c(Cl)c1 [4b-1]
[1]; Homo sapiens, MKN-45, 72 hours
  IC50: < 50 µM
[2]; Homo sapiens, HeLa
  IC50: < 50 µM
[3]; Homo sapiens, A-375, 72 hours
  IC50: < 50 µM
[4]; Homo sapiens, Jurkat
  IC50: < 50 µM
c-KIT
  inhibition at 10 µM: > 30%
[5]; Homo sapiens, A875, 72 hours
  IC50: < 50 µM
[6]; [8]
  IC50: < 50 µM

## CC(C)(C)c1cc(NC(=O)Nc2ccc(Sc3ncnc4[nH]ncc34)cc2)no1 [4c-3, 1-(4-(1H-pyrazolopyrimidine-4-sulfydryl)phenyl)-3-(5-tert-butylisoxazol-3-yl)urea]
[1]; 72 hours
  IC50: 3 to 10 µM
[2]
  IC50: < 50 µM
[3]; 72 hours
  IC50: < 50 µM
[4]
  IC50: < 50 µM
c-KIT
  Activity inhibition rate c-Kit (h): >90%
[5]; 72 hours
  IC50: < 50 µM
[6]; [7]
  IC50: < 50 µM
